Measured values: PMC9124818 (Pharmacology Research & Perspectives, 2022)
Read-outs that look alike come from different tables or passages of the source.

Columns and labels:
[1] = molecular target: T1, CYP2B6 (Homo sapiens, UniProt P20813); assay: Direct CYP450 inhibition in human liver microsomes (efavirenz 8-hydroxylation)
T1 sequence (P20813 1-491): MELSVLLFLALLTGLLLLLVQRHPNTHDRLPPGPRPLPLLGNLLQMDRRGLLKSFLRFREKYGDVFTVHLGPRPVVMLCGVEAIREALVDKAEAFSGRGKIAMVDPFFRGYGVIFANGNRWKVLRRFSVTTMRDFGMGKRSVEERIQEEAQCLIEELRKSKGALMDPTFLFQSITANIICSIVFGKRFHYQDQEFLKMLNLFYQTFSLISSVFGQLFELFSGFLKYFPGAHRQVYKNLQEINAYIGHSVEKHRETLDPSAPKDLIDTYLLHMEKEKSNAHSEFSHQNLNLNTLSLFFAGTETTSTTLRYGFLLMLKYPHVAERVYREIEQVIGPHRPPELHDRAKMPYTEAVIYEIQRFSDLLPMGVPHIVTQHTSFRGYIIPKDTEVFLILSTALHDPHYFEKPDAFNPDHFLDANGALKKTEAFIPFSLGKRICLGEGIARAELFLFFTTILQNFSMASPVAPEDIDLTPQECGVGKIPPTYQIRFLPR
Text: (§1) A mixed‐gender pool of 200 individual human liver microsomal samples was used.
(§2) This LIMS utilizes the Levenberg-Marquardt algorithm to perform nonlinear regression fitting of the data to the following 4-parameter sigmoidal-logistic IC50 equation:
(§3) As percent of control values are utilized, the Min is set to 0 and the Max is set to 100 (or other values, as appropriate). […] Therefore, when an IC50 value falls outside the concentration range studied, the IC50 values are reported to be greater than the highest concentrations of test article evaluated.

[2] = molecular target: T2, CYP2D6 (Homo sapiens, UniProt P10635); assay: Direct CYP450 inhibition in human liver microsomes (dextromethorphan O-demethylation)
T2 sequence (P10635 whole entry): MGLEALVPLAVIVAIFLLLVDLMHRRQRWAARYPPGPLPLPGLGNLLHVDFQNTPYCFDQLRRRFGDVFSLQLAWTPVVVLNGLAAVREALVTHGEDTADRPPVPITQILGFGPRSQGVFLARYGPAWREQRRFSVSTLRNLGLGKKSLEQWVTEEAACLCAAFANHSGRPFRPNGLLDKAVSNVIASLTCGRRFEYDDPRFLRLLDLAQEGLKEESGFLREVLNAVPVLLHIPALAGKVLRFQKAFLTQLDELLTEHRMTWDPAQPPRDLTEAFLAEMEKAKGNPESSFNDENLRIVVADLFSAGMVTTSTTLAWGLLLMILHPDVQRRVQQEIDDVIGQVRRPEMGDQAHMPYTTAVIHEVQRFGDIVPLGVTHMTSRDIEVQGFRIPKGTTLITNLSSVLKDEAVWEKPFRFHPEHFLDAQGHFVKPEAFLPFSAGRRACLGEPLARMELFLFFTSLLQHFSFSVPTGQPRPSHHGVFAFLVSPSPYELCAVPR
Protocol: Microsomes from non‐transplantable human livers were prepared and characterized as outlined previously.[25], [26] A mixed‐gender pool of 200 individual human liver microsomal samples was used. Substrate concentrations and incubation conditions for determination of the kinetic constant (S50 or Km) used to select marker substrate concentrations were previously determined.[24]
Summary data are expressed as percent of control and mean ± standard deviation (SD) or standard error of the mean (SEM), as appropriate. Individual values from inhibition studies were processed with the laboratory information management system (LIMS) Galileo v3.3 (Thermo Fisher Scientific), which was used to calculate IC50 values from a four‐parameter logistic regression applied to percent inhibition versus concentration values. […] Based on FDA guidance for metabolism‐ and transporter‐mediated DDI studies,[15] basic kinetic models for transporter inhibition, CYP450 inhibition, and CYP450 induction were employed to calculate R, R1, and R3 values, respectively, and were compared to the respective predetermined threshold values listed in the guidance document.[15] […] Plasma protein binding data were used to estimate input parameters for fraction unbound to plasma proteins in the mechanistic static model (Supplemental Table 2). The fraction absorbed was assumed to be 100%, yielding the highest possible portal concentrations. […] Assays were performed in duplicate or triplicate according to previously published reports. Statistical analysis for replicates was not possible with n = 2 sample sizes.
as §2, §3

[3] = test system: CYP2B6 mRNA; assay: CYP450 induction in cultured human hepatocytes, mRNA by qRT-PCR; assay type: cell-based; conditions: for Basic kinetic model: R3: per FDA Guidance (2020); for EC50 at 3 days: human, cultured cryopreserved hepatocytes, ± standard error, read-out: Basic kinetic model: EC50
Protocol: Cells were then harvested to isolate RNA, which was analyzed by quantitative reverse transcription‐polymerase chain reaction (qRT‐PCR) for induction of CYP1A2, CYP2B6, and CYP3A4 mRNA levels. Total RNA was phase extracted with TRIzol followed by purification with an RNeasy Mini Kit (Qiagen Inc., Germantown, MD). Quantitative PCR was performed in triplicate with a 7900HT Fast Real Time PCR System, an Applied Biosystems Universal Master Mix, and TaqMan® Gene Expression Assays. The quantity of target cDNA relative to control cDNA (GAPDH) was determined by the ΔΔCT method (Applied Biosystems User Bulletin #2). Relative quantitation measures the change in mRNA expression in a test sample relative to that in the control sample (i.e., DMSO). This method assumes that the efficiency of target amplification and the efficiency of endogenous control amplification are approximately equal.
mRNA assessment was conducted using a quantitative reverse transcription-polymerase chain reaction (qRT-PCR) according to the Applied Biosystems protocol. Each PCR was performed in triplicate. A Primer Mix was prepared for each Gene Expression assay. A typical Primer Mix contained TaqMan Fast Advanced Master Mix (1X), Gene Expression Assay (1X, 900 nM forward and reverse primers) and ribonuclease (RNase)-free water. The Reaction Mix was prepared by adding the Primer Mix to cDNA. A percentage of samples (no less than 10%) included NACs. […] The relative quantity of the target cDNA compared with that of the control cDNA (GAPDH) was determined by the ΔΔCt method (Applied Biosystems User Bulletin #2). Relative quantitation measures the change in mRNA expression in a test sample relative to that in a control sample (eg, dimethyl sulfoxide [DMSO]). This method assumes that the efficiency of the target amplification and the efficiency of the endogenous control amplification are approximately equal.
This software analyzes relative gene expression using the comparative Ct method (ΔΔCt), which relates the PCR signal of the target transcript to the PCR signal of the target in an untreated control. Both the treated sample and the untreated control signals are normalized to the endogenous control (GAPDH), for which expression is not affected by treatment and expression is constant throughout the tissue being tested.
The level of mRNA expression relative to the positive control was calculated as follows: […]

[4] = molecular target: CYP2C19 (Homo sapiens, UniProt P33261); assay: Direct CYP450 inhibition in human liver microsomes (S-mephenytoin 4'-hydroxylation)
CYP2C19, sequence (P33261 whole entry): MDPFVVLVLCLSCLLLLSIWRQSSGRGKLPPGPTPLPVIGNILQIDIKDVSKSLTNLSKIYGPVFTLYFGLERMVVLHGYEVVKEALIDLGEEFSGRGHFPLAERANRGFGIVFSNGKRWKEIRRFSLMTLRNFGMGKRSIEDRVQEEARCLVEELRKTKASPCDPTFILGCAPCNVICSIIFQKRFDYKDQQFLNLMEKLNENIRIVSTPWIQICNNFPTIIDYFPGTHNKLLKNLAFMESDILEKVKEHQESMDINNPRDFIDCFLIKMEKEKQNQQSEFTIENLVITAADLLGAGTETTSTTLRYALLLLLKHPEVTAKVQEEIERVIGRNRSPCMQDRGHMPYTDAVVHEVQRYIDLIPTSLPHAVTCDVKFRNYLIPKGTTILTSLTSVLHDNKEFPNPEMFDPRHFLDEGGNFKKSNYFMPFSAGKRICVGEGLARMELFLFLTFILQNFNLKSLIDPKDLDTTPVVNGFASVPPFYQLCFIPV
Text: as §1, §2, §3

[5] = molecular target: T3, P‐gp (Homo sapiens, UniProt P08183); assay: Transporter inhibition, bidirectional permeability of digoxin in Caco-2 cells; assay type: in vitro ADME
T3 construct: host or cells: Caco-2
T3 sequence (P08183 whole entry): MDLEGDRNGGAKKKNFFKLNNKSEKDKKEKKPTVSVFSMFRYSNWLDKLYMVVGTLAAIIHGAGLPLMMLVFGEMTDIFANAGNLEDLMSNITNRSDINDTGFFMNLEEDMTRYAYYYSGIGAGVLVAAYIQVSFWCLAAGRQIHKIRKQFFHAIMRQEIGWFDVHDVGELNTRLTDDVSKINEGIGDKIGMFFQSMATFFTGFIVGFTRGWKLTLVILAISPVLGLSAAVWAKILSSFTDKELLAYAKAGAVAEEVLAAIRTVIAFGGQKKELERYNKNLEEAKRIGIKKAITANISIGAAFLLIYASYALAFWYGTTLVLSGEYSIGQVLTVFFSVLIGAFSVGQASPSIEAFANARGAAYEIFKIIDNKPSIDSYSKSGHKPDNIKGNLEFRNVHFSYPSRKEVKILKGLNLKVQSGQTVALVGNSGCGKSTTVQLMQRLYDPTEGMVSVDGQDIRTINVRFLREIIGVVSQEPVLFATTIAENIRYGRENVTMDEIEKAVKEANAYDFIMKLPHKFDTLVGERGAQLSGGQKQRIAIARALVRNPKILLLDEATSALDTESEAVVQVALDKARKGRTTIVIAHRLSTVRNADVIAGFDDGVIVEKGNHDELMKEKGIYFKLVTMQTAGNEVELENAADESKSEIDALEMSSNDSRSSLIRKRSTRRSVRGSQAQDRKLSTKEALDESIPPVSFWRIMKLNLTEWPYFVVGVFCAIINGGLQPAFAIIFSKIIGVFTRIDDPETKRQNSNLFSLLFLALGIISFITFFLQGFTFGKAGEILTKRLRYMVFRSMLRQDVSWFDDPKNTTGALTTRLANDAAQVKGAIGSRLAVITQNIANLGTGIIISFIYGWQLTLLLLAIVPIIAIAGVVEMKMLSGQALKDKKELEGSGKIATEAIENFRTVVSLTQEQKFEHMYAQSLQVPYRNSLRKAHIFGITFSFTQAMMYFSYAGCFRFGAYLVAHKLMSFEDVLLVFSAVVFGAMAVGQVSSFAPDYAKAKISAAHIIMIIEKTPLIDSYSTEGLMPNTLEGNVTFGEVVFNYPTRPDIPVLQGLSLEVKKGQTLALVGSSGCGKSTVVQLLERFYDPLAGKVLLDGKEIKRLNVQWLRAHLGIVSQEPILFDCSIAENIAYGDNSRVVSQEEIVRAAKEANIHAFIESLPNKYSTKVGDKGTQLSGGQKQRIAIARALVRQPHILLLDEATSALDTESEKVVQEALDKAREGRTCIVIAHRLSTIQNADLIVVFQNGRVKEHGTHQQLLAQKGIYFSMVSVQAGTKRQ
Protocol: The test compound (FFA or nFFA) or the positive control substrate ([…], respectively) was added to the donor chamber. […] Cells were then washed, lysed with scintillation cocktail, and analyzed for the probe substrate with a MicroBeta scintillation counter (PerkinElmer, Hopkinton, MA). Transcellular transporter assay conditions are described in Supplemental Table 1. Calculation of IC50 values was based on bidirectional permeability of probe substrate with and without the inhibitor in MDCKII cells expressing BCRP and in Caco‐2 cells expressing P‐gp, and transporter‐dependent uptake of probe substrate in HEK293 cells expressing all other transporters (Supplemental Table 1).
The net flux for human epithelial colorectal adenocarcinoma cells (Caco-2; P-gp) and MDCKII-BCRP inhibition determination was calculated according to the equation: […]

[6] = molecular target: T2, CYP2D6; assay: Time- and metabolism-dependent inhibition, 30-min preincubation with or without NADPH (dextromethorphan O-demethylation); conditions: for IC50: human liver microsomes; for inhibition at 30 min: both, human, pooled human liver microsomes, pH 7.4, probe dextromethorphan (O-demethylation)
Protocol: These preincubations allowed assessment of the NADPH‐dependence of any time‐dependent CYP450 inhibition. Following the 30‐min preincubation, the NADPH‐generating system and/or marker substrate was added, and incubations were continued as described previously to measure residual CYP450 enzyme activity.

[7] = test system: cultured human hepatocytes; assay: Cytotoxicity: LDH release and microscopic evaluation; assay type: cell-based
Protocol: Data were processed with KC4 Signature software (version 3.4, Rev 21, BioTek Instruments, Inc.) and graphed with Microsoft Excel 2003 (Microsoft Corp.). Percent LDH release was calculated based on the following equations: […]

With CCNC(C)Cc1cccc(C(F)(F)F)c1 (racemic) [FFA, (RS)‐ethyl(α‐methyl‐3‐trifluoromethylphenethyl)amine, reference compound] the IC50 [1] was > 60 µM, the “Inhibition (%)” value ([1]; direct inhibition, substrate efavirenz, FFA up to 60 µM, nFFA up to 100 µM) was 6.1% and the “Basic model: Potential for clinical inhibition” value ([1]; substrate efavirenz) was “No (Potential to inhibit if R1 ≥ 1.02)”. The “Static mechanistic model: Potential for clinical inhibition” value ([1]; substrate efavirenz) was “No (Potential to inhibit if AUCR ≥ 1.25)”, the “Basic model: R1” value ([1]; substrate efavirenz, R1 = 1 + (Imax,u/Ki,u)) was 1.01 and the IC50 [2] was 4.7 ± 0.2 µM. For the same compound, the Ki [2] was 2.17 µM, the “Inhibition (%)” value ([2]; direct inhibition, substrate dextromethorphan, FFA up to 60 µM, nFFA up to 100 µM) was 90% and the “Ah (guidance term)” value ([2]; mechanistic static model, Supplemental Table 2) was 0.867. For the same compound, the “Basic model: Potential for clinical inhibition” value ([2]; substrate dextromethorphan) was “Yes (Potential to inhibit if R1 ≥ 1.02)”, the “Static mechanistic model: Potential for clinical inhibition” value ([2]; substrate dextromethorphan) was “No (Potential to inhibit if AUCR ≥ 1.25)” and the “Basic model: R1” value ([2]; substrate dextromethorphan, R1 = 1 + (Imax,u/Ki,u)) was 1.07. The “CYP2B6 induction (abstract)” value ([3]; cultured human hepatocytes) was “up to 2.8 fold”, the “Basic kinetic model: Potential to induce” value ([3]; hepatocytes HC7‐8) was “No” and the “Static mechanistic model: Potential to induce” value ([3]; hepatocytes HC7‐8) was “No (AUCR <0.8 to denote induction)”. For the same compound, the “Basic kinetic model: R3” value ([3]; hepatocytes HC7‐8) was 0.87, the “Basic kinetic model: Potential to induce” value ([3]; hepatocytes HC10‐8) was “Yes” and the “Static mechanistic model: Potential to induce” value ([3]; hepatocytes HC10‐8) was “No (AUCR <0.8 to denote induction)”. The “Basic kinetic model: R3” value ([3]; hepatocytes HC10‐8) was 0.77, the “Basic kinetic model: Potential to induce” value ([3]; hepatocytes HC10‐10) was “Yes” and the “Static mechanistic model: Potential to induce” value ([3]; hepatocytes HC10‐10) was “No (AUCR <0.8 to denote induction)”. The “Basic kinetic model: R3” value ([3]; hepatocytes HC10‐10) was 0.76, the EC50 at 3 days ([3]; lot HC7-8, hepatocytes HC7‐8) was 8.32 ± 2.1 µM and the EC50 at 3 days ([3]; lot HC10-8, hepatocytes HC10‐8) was 13.6 ± 1.5 µM. The EC50 at 3 days ([3]; lot HC10-10, hepatocytes HC10‐10) was 4.61 ± 3.3 µM, the IC50 [4] was > 60 µM and the “Inhibition (%)” value ([4]; direct inhibition, substrate S-mephenytoin, FFA up to 60 µM, nFFA up to 100 µM) was 14%. For the same compound, the “Basic model: Potential for clinical inhibition” value ([4]; substrate S-mephenytoin) was “No (Potential to inhibit if R1 ≥ 1.02)”, the “Static mechanistic model: Potential for clinical inhibition” value ([4]; substrate S-mephenytoin) was “No (Potential to inhibit if AUCR ≥ 1.25)” and the “Basic model: R1” value ([4]; substrate S-mephenytoin, R1 = 1 + (Imax,u/Ki,u)) was 1.01. The IC50 [5] was > 100 µM, the IC50 ([6]; IC50 (+ NADPH), 30-min preincubation in the presence of NADPH) was 10 µM and the IC50 ([6]; IC50 (- NADPH), 30-min preincubation in the absence of NADPH) was 4.5 µM. For the same compound, the inhibition at 30 min ([6]; % inhibition (+ NADPH), 30-min preincubation in the presence of NADPH) was 82%, the inhibition at 30 min ([6]; % inhibition (- NADPH), 30-min preincubation in the absence of NADPH) was 89% and the hepatocyte morphology ([7]; up to 40 μM FFA or 50 μM nFFA for 3 consecutive days) was “No morphological changes”. For the same compound, the LDH release ([7]; up to 40 μM FFA or 50 μM nFFA, all three hepatocyte cultures) was ≤ 8.5 % positive control.
